The NIST ThermoML archive (doi:10.1021/je8009545)

Details: Gas; for mass density: Gas pipette; for viscosity: Oscillating disk viscometry

COC [dimethyl ether]
Details	mass density [kg/m3]	viscosity [mPa·s]
298.15 K, 101 kPa	1.91	0.00922
298.15 K, 296 kPa	6.081	0.00918
298.15 K, 475 kPa	10.06	0.0091
323.15 K, 101 kPa	1.652	0.00997
323.15 K, 295 kPa	5.561	0.00996
323.15 K, 490 kPa	9.31	0.00993
323.15 K, 736 kPa	14.71	0.00995
323.15 K, 976 kPa	22.53	0.00994
348.15 K, 101 kPa	1.332	0.01081
348.15 K, 305 kPa	5.17	0.01081
348.15 K, 551 kPa	9.705	0.01082
348.15 K, 1006 kPa	19.03	0.01085
348.15 K, 1561 kPa	35.81	0.01094
348.15 K, 1850 kPa	44.66	0.01106
373.15 K, 101 kPa	1.235	0.01161
373.15 K, 305 kPa	4.748	0.0116
373.15 K, 500 kPa	7.787	0.01162
373.15 K, 1028 kPa	16.71	0.01168
373.15 K, 1940 kPa	35.33	0.01191
373.15 K, 2505 kPa	51.25	0.01219
373.15 K, 2875 kPa	67.49	0.01247
373.15 K, 3049 kPa	74.07	0.01261
398.15 K, 101 kPa	0.948	0.01234
398.15 K, 300 kPa	4.392	0.01237
398.15 K, 531 kPa	7.678	0.01239
398.15 K, 992 kPa	15.1	0.01244
398.15 K, 2085 kPa	34.47	0.01274
398.15 K, 2985 kPa	54.66	0.01317
398.15 K, 3965 kPa	87.68	0.0141
398.15 K, 4480 kPa	112.3	0.01504
398.15 K, 4620 kPa	122.4	0.01543
423.15 K, 101 kPa	1.009	0.01332
423.15 K, 310 kPa	4.289	0.01333
423.15 K, 505 kPa	6.812	0.01335
423.15 K, 985 kPa	13.75	0.01342
423.15 K, 2022 kPa	30.21	0.0137
423.15 K, 3004 kPa	48.47	0.01413
423.15 K, 4015 kPa	71.3	0.01477
423.15 K, 4495 kPa	86.57	0.01521
423.15 K, 4912 kPa	99.15	0.01568
